Test results reported in US20130041022A1, “Glyceollins Suppress Androgen-Responsive Prostate Cancer” (UNITED STATES DEPARTMENT OF AGRICULTURE, priority 2008, published 2013).

Columns and labels:
Format in all cases: cell-based, human
CDKN1A mRNA = assay: RT-PCR CDKN1A mRNA in LNCaP cells; settings: 48 hours treatment, 10% FBS
Method: LNCaP cells cultured in 10% FBS were treated with 0, 2.5, 12.5, or 25 μM glyceollins for 48 h, total RNA isolated and mRNA levels of CDKN1A determined as described below. Results are expressed as mean +/−SD (n=3).
LNCaP cells cultured in 10% FBS were treated with 0, 1, 5, 12.5 or 25 μM genistein for 48 h, total RNA isolated and mRNA levels of CDKN1A determined as described below. Results are expressed as mean+/−SD (n=3).
Determination of the effects of glyceollins on gene expression in LNCaP cells using RT-PCR. To examine the effects of glyceollins on cyclin inhibitor CDKN1A and B mRNA expression, LNCaP cells were plated in 6-well plates (0.25×10^6 cells/well) in Media A. After twenty-four hours the medium was removed and replaced with fresh medium containing vehicle, 1, 5, or 25 μM glyceollins or genistein. For experiments examining the effects of glyceollins on steroid hormone, LNCaP cells were plated in 6-well plates (0.25×10^6 cells/well) in Media A and switched to Media B containing 10% CDS 24 h after plating to minimize the effect of serum hormones. Twenty-four hours later, the medium was replaced with fresh medium containing 1 nM DHT or 17β-estradiol with or without 0-25 μM glyceollin. […] Taqman real-time PCR was used to quantify expression of the mRNA. […]

CDKN1B mRNA = assay: RT-PCR CDKN1B mRNA in LNCaP cells; settings: 48 hours treatment, 0-25 μM
Method: LNCaP cells cultured in 10% FBS were treated with 0, 2.5, 12.5, or 25 μM glyceollins for 48 h, total RNA isolated and mRNA levels of CDKN1A determined as described below. Results are expressed as mean+/−SD (n=3).
Determination of the effects of glyceollins on gene expression in LNCaP cells using RT-PCR. To examine the effects of glyceollins on cyclin inhibitor CDKN1A and B mRNA expression, LNCaP cells were plated in 6-well plates (0.25×10^6 cells/well) in Media A. After twenty-four hours the medium was removed and replaced with fresh medium containing vehicle, 1, 5, or 25 μM glyceollins or genistein. For experiments examining the effects of glyceollins on steroid hormone, LNCaP cells were plated in 6-well plates (0.25×10^6 cells/well) in Media A and switched to Media B containing 10% CDS 24 h after plating to minimize the effect of serum hormones. Twenty-four hours later, the medium was replaced with fresh medium containing 1 nM DHT or 17β-estradiol with or without 0-25 μM glyceollin. For all experiments fresh medium containing the test compounds was changed daily and cells were harvested for total RNA isolation using the Trizol method (Invitrogen) after 48 h. Taqman real-time PCR was used to quantify expression of the mRNA. […]

PC-3 cells = assay: Cell cycle analysis using flow cytometry (PI), PC-3; settings: 25 μM, 72 hours
Method: PC-3 cells (3×10^6 cells) were plated in T-175 flask and treated with or without 25 μM of glyceollins or genistein for 72 hr, cell cycle analysis performed as described below. Results are expressed as % of total cells (n=3).
(§1) Cell cycle analysis using flow cytometry. LNCaP or PC3 cells (3×10^6 cells) were seeded into T-175 flask in Medium A. Twenty-four hours later the medium was changed to that containing vehicle or test compounds. […] The cellular DNA was then analyzed by flow cytometry. DNA content of the cells was determined through flow cytometry using a FACScalibur cytometer (Becton Dickinson, San Jose, Calif.). Flow cytometric data files were collected and analyzed using the CELLQuest program (Becton Dickinson). […] Cell cycle distribution percentages of stained nuclei were calculated using Modfit LT software (Version 3.0, Verity Software House, Inc., Topsham, Me.). […]

LNCaP cells = assay: Cell cycle analysis using flow cytometry (PI), LNCaP; settings: 72 hours; glyceollins 0-25 μM, genistein 25 μM
Method: LNCaP cells (3×10^6 cell) were plated in T-175 flask and treated with 0, 0.25, 2.5, 12.5, or 25 μM glyceollins or with and without genistein (25 μM) for 72 hr, cell cycle analysis performed as described below. Results are expressed as % of total cells (n=3).
as §1

## O=c1c(-c2ccc(O)cc2)coc2cc(O)cc(O)c12 [genistein]
CDKN1A mRNA
  concentration at which significant change/induction of CDKN1A mRNA is observed: 25 µM
CDKN1B mRNA
  effect on CDKN1B mRNA levels in LNCaP cells: no changes
PC-3 cells
  G2/M blockage in PC-3 cells: lead to G2/M blockage
LNCaP cells
  effect on cell cycle progression in LNCaP cells: G1/G0 arrest
